Data on 1 compound can be found in publication PMC9481570, “A small molecule antagonist of SMN disrupts the interaction between SMN and RNAP II” (Nature Communications, 2022).

This experiment has as its target T1, tandem Tudor domain (TTD) of UHRF1 (Homo sapiens, UniProt Q96T88).
T1 construct: UHRF1 (aa 126–285); His (N, cleaved yes); made in house; host or cells: E. coli BL21 (DE3) Codon plus RIL
Description: Fluorescein polarization-based peptide displacement screen. In kind it is binding. The note with it: 2 mM compound, 8 μM UHRF1 TTD, 40 nM FITC-H3K9me3 peptide; hit = signal less than 50% of negative control. The procedure:
A small molecule fragment library with 2040 compounds was screened against TTD of UHRF1 by fluorescein polarization-based peptide displacement assay according to previous reports. Briefly, the screening was performed in 10 μL at a protein concentration of 8 μM premixed with a 40 nM FITC-labeled H3K9me3 peptide (aa 1–25, Tufts University Core Services), and then adding a single concentration of 2 mM compound in a buffer of 20 mM Tris-HCl, pH 8.8, 50 mM NaCl, and 0.01% Triton X-100. The hits were further confirmed by dose response analysis with 1 mM as the highest concentration with 11 sequential 2-fold dilutions. All the assays were performed in duplicate in 384-well plates (Greiner, 784290), using the Synergy 4 microplate reader (BioTek), with an excitation wavelength of 485 nm and an emission wavelength of 528 nm. Data were corrected by background of the free labeled peptides and analyzed by GraphPad Prism version 5 software. […]
Tris -HCl, pH 8.8, 50 mM NaC l, and 0.01% Triton X - 100. […] All the assays were performed in duplicate in 384 -well plates (Greiner, 784290), usi ng the Synergy 4 microplate reader (BioTek), with an excitation wavelength of 485 nm and an emission wavelength of 528 nm. Data were corrected by background of the free labeled peptides and analyzed by GraphPad […]
Detection instrument and software Synergy 4 microplate reader (BioTek), GraphPad […]

The structures appear in SMILES notation.

T1 sequence (Q96T88 126-285): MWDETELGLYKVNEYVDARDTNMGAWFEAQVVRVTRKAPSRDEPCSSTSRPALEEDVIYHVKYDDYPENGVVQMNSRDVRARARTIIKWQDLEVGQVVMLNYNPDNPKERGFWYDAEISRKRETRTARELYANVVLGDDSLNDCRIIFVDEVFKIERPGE

For the compound `Cn1c2c(c(=N)c3c1CCC3)CCC2` [Compound 1, 4-methyl-2,3,4,5,6,7-hexahydrodicyclopenta[b,e]pyridin-8(1H)-imine], the “outcome of fragment screen” value is “hit”.
